# From paper PMC10439158, “The net electrostatic potential and hydration of ABCG2 affect substrate transport” (Nature Communications, 2023)
# Where two headings read alike, the source gives them in different places.
# What was measured:
# [1] = biological target: T1, ABCG2 (Homo sapiens, UniProt Q9UNQ0); assay: cell-based; parameters: full-length ABCG2-WT in MEF cells; species or system Abcg2-KO MEFs expressing human ABCG2-WT; Inhibition of ABCG2-mediated Hoechst 33342 efflux; intracellular Hoechst 33342 fluorescence accumulation, normalized to vector control; conditions: 0.5 uM Hoechst 33342 substrate, 2 h, 37 °C; read-out: IC50 for transport inhibition in WT
# T1 sequence (Q9UNQ0 1-655): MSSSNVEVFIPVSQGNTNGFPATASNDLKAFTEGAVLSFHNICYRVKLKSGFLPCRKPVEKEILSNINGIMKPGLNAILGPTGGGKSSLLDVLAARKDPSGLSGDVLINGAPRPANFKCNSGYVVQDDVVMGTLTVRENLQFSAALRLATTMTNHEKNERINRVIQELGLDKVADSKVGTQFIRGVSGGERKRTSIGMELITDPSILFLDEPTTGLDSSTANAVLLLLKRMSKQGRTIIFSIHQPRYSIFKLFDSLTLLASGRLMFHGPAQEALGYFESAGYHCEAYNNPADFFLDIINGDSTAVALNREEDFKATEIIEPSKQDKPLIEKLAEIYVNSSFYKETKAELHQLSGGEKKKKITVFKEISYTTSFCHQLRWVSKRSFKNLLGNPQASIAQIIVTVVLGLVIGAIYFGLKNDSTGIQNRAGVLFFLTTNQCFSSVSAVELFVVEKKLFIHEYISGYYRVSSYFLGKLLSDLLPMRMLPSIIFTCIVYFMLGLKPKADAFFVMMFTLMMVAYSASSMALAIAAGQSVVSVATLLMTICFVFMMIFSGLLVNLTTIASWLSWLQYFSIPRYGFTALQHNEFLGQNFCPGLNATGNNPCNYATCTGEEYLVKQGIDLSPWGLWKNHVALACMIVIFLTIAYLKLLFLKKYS
# Description: The intracellular accumulation of fluorescent Hoechst 33342, pheophorbide a, chlorin e6, and purpurin 18, ABCG2 substrates, was used to determine the function of ABCG2. […] Thereafter, the medium was removed, and cells were washed twice with 200 μL ice-cold PBS and the fluorescence of Hoechst 33342 was then quantitatively determined with a Synergy H4 microplate reader (BioTek, Winooski, VT, USA) at an excitation wavelength of 355 nm and an emission wavelength of 460 nm. The accumulation of Hoechst 33342 was normalized to protein concentration as determined using the BCA Protein Assay Kit (Pierce, Rockford, IL, USA). The data were normalized by the proportion accumulated relative (%) to vector control. For the time-dependent Hoechst 33342 accumulation assay, 10 μM Hoechst 33342 was treated for different time periods (0.5, 1, 1.5, 2, 5, 10, 20, 30, 60, and 90 min). Relative intracellular Hoechst 33342 levels in the MEFs were normalized to vector control at 90 min. For the other fluorescent substrate accumulation assay, 0.5 μM pheophorbide a, 5 μM chlorin e6, or 5 μM purpurin 18 were treated for 1 h at 37 °C in the dark. The intracellular accumulation of pheophorbide a, purpurin 18, or chlorin e6 was measured at an excitation wavelength of 405 nm and an emission wavelength of 667 nm. […] Thereafter, the medium was removed and cells were washed twice with 1 mL ice-cold PBS. […] The total radioactivity was measured by liqu Apparent EC50 and IC50 values were calculated from dose-response data using nonlinear regression analysis. All experiments were independently repeated at least three times. […] Non-polar residues are grey, polar residues are green, and acidic residues are red.
# [2] = biological target: T1, ABCG2; assay: isothermal shift assay on membranes; Hoechst […] transport inhibition; 5D3 shift; disulfide crosslinking; assay type: cell-based; parameters: full-length ABCG2-WT in membrane vesicles / MEF cells
# [3] = biological target: T1, ABCG2; assay: cell-based; parameters: full-length ABCG2-WT in MEF cells; species or system MEF (mouse embryonic fibroblasts) expressing human ABCG2-WT; Inhibition of ABCG2-mediated Hoechst 33342 transport; intracellular Hoechst 33342 fluorescence accumulation; conditions: ABCG2-WT, 0.5 uM Hoechst 33342; read-out: Hoechst 33342 transport inhibition IC50
# Description: The intracellular accumulation of fluorescent Hoechst 33342, pheophorbide a, chlorin e6, and purpurin 18, ABCG2 substrates, was used to determine the function of ABCG2. For Hoechst 33342 accumulation assay, MEFs were seeded into a 96-well black clear bottom plate (Corning #3603) at 20,000 cells/well and 0.5 μM Hoechst 33342, and either [compound left out] or the test inhibitor (0.002–10 μM) were added to the culture medium followed by incubation for 2 h at 37 °C in the dark. Thereafter, the medium was removed, and cells were washed twice with 200 μL ice-cold PBS and the fluorescence of Hoechst 33342 was then quantitatively determined with a Synergy H4 microplate reader (BioTek, Winooski, VT, USA) at an excitation wavelength of 355 nm and an emission wavelength of 460 nm. The accumulation of Hoechst 33342 was normalized to protein concentration as determined using the BCA Protein Assay Kit (Pierce, Rockford, IL, USA). […] The intracellular accumulation of pheophorbide a, purpurin 18, or chlorin e6 was measured at an excitation wavelength of 405 nm and an emission wavelength of 667 nm. […] The total radioactivity was measured by liqu Fig. 4 N436A substitution affects inhibitor interaction. a–d Representative snapshots from MDS of tariquidar interacting with ABCG2. a ABCG2-WT with residues within 4 Å of tariquidar are in surface representation. […]
# [4] = biological target: T1, ABCG2; assay type: cell-based; parameters: full-length ABCG2-WT in membrane vesicles / MEF cells
Compound,IC50 [1] [µM],isothermal shift assay on membranes; Hoechst 33342 transport inhibition; 5D3 shi [2],IC50 [3] [µM],isothermal shift assay on membranes; Hoechst 33342 transport inhibition; 5D3 shi [4]
CS(=O)(=O)CCNCc1ccc(-c2ccc3ncnc(Nc4ccc(OCc5cccc(F)c5)c(Cl)c4)c3c2)o1 [lapatinib],0.05,"ABCG2 inhibitors, Ko143, tariquidar, and lapatinib, strongly and dose-dependently thermally stabilized ABCG2-WT",–,–
COc1cc2c(cc1OC)CN(CCc1ccc(NC(=O)c3cc(OC)c(OC)cc3NC(=O)c3cnc4ccccc4c3)cc1)CC2 [tariquidar],–,–,0.08,"ABCG2 inhibitors, Ko143, tariquidar, and lapatinib, strongly and dose-dependently thermally stabilized ABCG2-WT"
